# Test: Solubility (aqueous / gastrointestinal fluids)
# Type: physicochemical
compound,measurement,value
CCOC(=O)C(Cc1ccc(NC(=O)c2c(Cl)cccc2Cl)cc1)NC(=O)c1c(C)cccc1Cl (stereo not shown) [Compound II],solubility in gastrointestinal fluids,practically insoluble

# Reference: patent publication US6350786B1, “Stable complexes of poorly soluble compounds in ionic polymers” (Hoffmann-La Roche Inc., priority 1998, dated 2002)
